Entries after “also recorded” stand apart in the source; their conditions may differ. Like-named read-outs stand apart in the source and are kept apart here.

The conditions of data set [1]: WO 2006/003179; cited from earlier work.
For data set [2], the system named is HLA-Cw3+ and HLA-Cw4+ targets. The settings on record: cited from earlier work.
For data set [3], the system named is KIR2DL1 and KIR2DL2/3. The settings on record: literature and WO 2006/003179; cited from earlier work.
Another data set deals with KIR receptor. The following applies: cited from earlier work.
Data set [4] deals with AML. The following applies: cited from earlier work.
Data set [5] relates to KIR2DL2/3. The settings on record: cited from earlier work.
For the next data set, the target named is KIR2DS4 (Homo sapiens, UniProt P43632). The settings on record: cited from earlier work.
Data set [6] deals with AML. Nature of the data set: Phase 1 overall survival of AML patients. Type of data set: in vivo, human. The settings on record: 1 and 3 mg/kg.
In data set [7] the test system is KIR2DL2/3. Nature of the data set: KIR receptor occupancy on cells from KIR2DL2/3+ patients. Type of data set: in vivo, human.
A further data set deals with KIR2DS1 and KIR2DS2. The following applies: cited from earlier work.
The target of a further data set is KIR2DS3 (Homo sapiens, UniProt Q14952). The settings on record: cited from earlier work.
A further data set concerns BM-derived NK cells. Nature of the data set: In vivo treatment with 5-aza-cytidine: NK cell phenotype and subsets in BM. Set-up: species or system huNSG mice.
The conditions of data set [8]: Troetel et al., 1972; cited from earlier work.
A further data set relates to CD45+ cells. The experiment in a line: In vivo treatment with 5-aza-cytidine: BM cytotoxicity. The following applies: low-dose, long-term treatment; huNSG and non-humanized control mice.
The test system of the next data set is pediatric BCP-ALL. Nature of the data set: In vivo treatment with 5-aza-cytidine: leukemic burden in BM. The following applies: non-humanized control NSG mice, low-dose regimen.
For a further data set, the system named is NALM-16 cells. Nature of the data set: In vitro cytotoxicity of sorted KIR+ NKAES cells with KIR blockade. The format is cell-based. The settings on record: 15 μg/ml, NALM-16, E:T ratio 2:1. The procedure:
Target cells or cell lines were labeled with 0.5 μM CFSE (Vybrant CFDA SE Cell Tracer Kit®, Invitrogen, Germany) 1 day prior to use. NKAES cells were thawed, cultivated overnight and subsequently sorted into KIR^+ and KIR^− subsets following labeling with anti-CD158a (clone HP3E4 recognizing KIR2DL1/S1/S4), anti-CD158b (clone GL183 recognizing KIR2DL2/S2/L3) and anti-CD158e (clone DX9 recognizing 3DL1). KIR^+ and KIR^− NK cells were used as effector cells and cultured overnight in the presence of 100 IU/ml IL2. Co-incubation with NALM-16 cells was performed in triplicates at ratios between 10:1 and 2:1 for 5 h. Following staining with ARD-Ax350, cells were washed and analyzed. To correct for spontaneously occurring cell death, target cell monoculture controls were included in every experiment. The percentage of specific cytotoxicity was calculated as follows: (% CFSE^+ARD^+ dead targets−% CFSE^+ARD^+ spontaneously dead targets)/(100−% CFSE^+ ARD^+ spontaneously dead targets)×100%.
In vitro cytotoxicity was assayed as described in Example 1. […] Following staining with ARD-Ax350, cells were washed and analyzed.

For data set [9], the system named is KIR2DL1 and KIR2DL2/3. The experiment in a line: KIR binding specificity of anti-KIR mAbs: inhibitory KIR2DL. Set-up: species or system human.
A further data set concerns BCP-ALL sample P23T. The experiment in a line: Lirilumab in NSG mice with adoptively transferred KIR-KIRL-matched NK cells: tumor burden. The format is in vivo. The following applies: P23T blasts, KIR-KIRL-matched activated NK cells, 2250 μg/mouse i.v., 24 h, preliminary data. Here is the method: Naïve NSG mice were injected with blasts, followed by the injection of activated NK cells and subsequent intravenous injection of IPH2102 (2250 μg/mouse). Mice were euthanized after 24 h to quantify tumor burden. […] Data depicted in FIGS. 13B and D represent preliminary data performed in a small number of mice. The data provided in Examples 1-4 support the concept that NK cell immune-therapy, ideally performed with KIR-KIRL-mismatched donors, should have a role in the treatment of pediatric BCP-ALL disease.

A further data set deals with inhibitory KIR. Nature of the data set: Lirilumab treatment of huNSG mice: inhibitory KIR expression. The format is in vivo. The following applies: 250 μg/mouse, preliminary data. The procedure:
HuNSG mice were treated 14 days before the injection of leukemia cells with a complex of IL15/IL15Ra. One day prior to blasts injection, NK cells were additionally activated by intravenous injection of polyI:C and IPH2102. On the following day blasts were injected, and after 24 h the extent of tumor burden was quantified using 8-11 color flow cytometry.

KIR2DS4, sequence (P43632 22-304): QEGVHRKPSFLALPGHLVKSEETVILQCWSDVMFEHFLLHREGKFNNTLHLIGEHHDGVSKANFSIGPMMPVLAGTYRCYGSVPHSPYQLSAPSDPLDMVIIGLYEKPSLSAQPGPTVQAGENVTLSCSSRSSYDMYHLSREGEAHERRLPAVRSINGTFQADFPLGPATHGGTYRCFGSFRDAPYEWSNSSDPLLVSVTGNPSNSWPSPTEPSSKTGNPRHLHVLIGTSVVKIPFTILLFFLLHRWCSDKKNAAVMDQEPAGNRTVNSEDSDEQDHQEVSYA
KIR2DS3, sequence (Q14952 22-304): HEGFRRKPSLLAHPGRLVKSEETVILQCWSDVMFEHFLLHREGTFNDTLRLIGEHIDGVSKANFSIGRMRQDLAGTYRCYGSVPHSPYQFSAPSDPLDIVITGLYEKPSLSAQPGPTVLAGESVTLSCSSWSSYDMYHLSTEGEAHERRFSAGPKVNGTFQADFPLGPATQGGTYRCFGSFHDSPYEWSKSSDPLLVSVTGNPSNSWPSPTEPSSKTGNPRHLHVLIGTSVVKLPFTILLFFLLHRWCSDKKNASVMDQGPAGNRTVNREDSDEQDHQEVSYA

In the case of “1-7F9: KIR2DL-cross-reactive fully human IgG4 kappa mAb; H chain SEQ ID NO:3, L chain SEQ ID NO:5”, the IgG4 half-molecule formation entry in [1] is “did not reveal half-molecule formation”. For the same molecule, in data set [2] (WO 2005/003168, Example 4), the “reconstitution of cell lysis by NK cells against Cw4-positive targets” value is “almost completely reconstitutes lysis”. Also, the “potentiation of NK cell cytolytic activity on HLA-Cw3+ and HLA-Cw4+ targets” value in data set [2] (WO 2005/003168) is reported as “strongly potentiate NK cell cytolytic activity”. In addition, the “KIRs bound / recognized” value in the data set on KIR2DL1 and KIR2DL2/3 [3] is “binds specifically to both KIR2DL1 and KIR2DL2/3”. Moreover, the figures for the “duration of full (>90%) KIR receptor occupancy” value in the data set with KIR receptor (0.075 mg/kg), in the data set on KIR receptor (1 mg/kg) and in the data set on KIR receptor (3 mg/kg) were 1 week, 2 weeks and “at least 4 weeks”, respectively. In addition, in the data set on KIR receptor (3 mg/kg), the “duration of KIR saturation (>30% KIR occupancy)” value is 24-32 weeks. Besides, the “overall survival (OS)” value in the data set with AML [4] (6 AML patients, dosages of 1 and 3 mg/kg) is given as 29.7 months; in the data set on AML [4] (16 AML patients, <0.3 mg/kg) it was 11.8 months. Also, in the data set with KIR2DL2/3 [5], the “blocking of binding of group 1 HLA-C (HLA-Cw3) to KIR2DL2/3” value is given as “blocks”. The “binding to KIR2DS4” value with KIR2DS4 is “does not bind to the stimulatory KIR, KIR2DS4; also recorded: none of 1-7F9, lirilumab and 1-4F1 binds to KIR2DS4”. In addition, the “improvement of OS versus <0.3 mg/kg group” value in the data set with AML [6] is on record as around 18 months. Besides, the receptor occupancy entry with KIR2DL2/3 [7] (0.2 mg/kg and 2 mg/kg, 28-day period) is on record as “good receptor occupancy throughout the 28-day period”. In addition, the “binding to KIR2DS1 and KIR2DS2” value in the data set with KIR2DS1 and KIR2DS2 was “bind to KIR2DS1 and KIR2DS2”. Also, the “binding to KIR2DS3” value in the data set with KIR2DS3 is “does not bind to the stimulatory KIR, KIR2DS3”.
With `Nc1ncn([C@@H]2O[C@H](CO)[C@@H](O)[C@H]2O)c(=O)n1` [5-aza-cytidine], the “expression of inhibitory (KIRs, NKG2A) and activating (NKp44, NKG2D) NK cell receptors” value with BM-derived NK cells (BM-derived NK cells of huNSG mice, low doses) was “did not significantly modulate the expression; also recorded: does not significantly alter the expression”. Moreover, in the data set on BM-derived NK cells (huNSG mice, low-dose long-term treatment), the “numbers of immature NK cell precursors and mature NK cell subsets in BM” value is “distinctly higher numbers of both immature and mature NK cell subsets; also recorded: clearly higher numbers; also recorded: induces the expression of BM-residing NK cell precursors”. In addition, the half-life entry in data set [8] is “less than 4 h”. The “BM cytotoxicity: human and murine CD45+ cells” value with CD45+ cells was “statistically insignificant reduction; also recorded: does not exert statistically relevant BM cytotoxicity”. Besides, the “direct cytotoxic effect on pediatric BCP-ALL” value with pediatric BCP-ALL was “largely excluded; also recorded: does not exert relevant direct cytotoxic effects”.
Turning to “lirilumab: 1-7F9(S241P) variant, human IgG4 anti-KIR2DL1/2/3 mAb; H chain SEQ ID NO:4, L chain SEQ ID NO:5”, in the data set with KIR2DS4, the “binding to KIR2DS4” value is “none of 1-7F9, lirilumab and 1-4F1 binds to KIR2DS4”. Further, in the data set on NALM-16 cells, the “effect on cytotoxicity of KIR+ NK cells of KIR-KIRL-matched donors” value is “distinctly enhanced” and the “effect on cytotoxicity of KIR+ NK cells of KIR-KIRL-mismatched donors” value is recorded as “did not respond to inhibitory KIR blockade”. Also, the KIR receptor occupancy in the data set on KIR2DL2/3 [7] (1 mg/kg, over a 28-day period) was around 100%. In addition, the “binding to KIR2DS1 and KIR2DS2” value with KIR2DS1 and KIR2DS2 was “bind to KIR2DS1 and KIR2DS2”. For the same molecule, the “effect of S241P mutation on affinity for KIR2DL1 and KIR2DL2/3” value in the data set on KIR2DL1 and KIR2DL2/3 [9] is “equalizes the affinity for KIR2DL1 and KIR2DL2/3”. The “specificity and affinity of binding to KIR targets” value in the data set on KIR2DL1 and KIR2DL2/3 [9] (inferred from identical CDRs and variable regions) was “the same as that exhibited by 1-7F9”. Also, the tumor burden result with BCP-ALL sample P23T is on record as “significant reduction of tumor burden”. Further, the “levels of inhibitory KIR expression” value in the data set on inhibitory KIR was “very low levels; also recorded: barely detectable levels”. Besides, in the data set on inhibitory KIR (listed as lirilumab (IPH2102)), the “levels of inhibitory KIR expression” value is “negligible”.

The record behind these values is patent publication US11639384B2, “Treatment of pediatric BCP-ALL patients with an anti-KIR antibody” (UNIVERSITY CHILDREN'S HOSPITAL TÜBINGEN, priority 2014, dated 2023).
